This note sets out measurements from publication PMC5701947, “β1-Adrenergic Receptor Contains Multiple IA^k and IE^k Binding Epitopes That Induce T Cell Responses with Varying Degrees of Autoimmune Myocarditis in A/J Mice” (Frontiers in Immunology, 2017).

The test system of the assay is T cells (lymph node cells/splenocytes from immunized animals). Put plainly: T cell proliferation assay ([3H]-thymidine). As to conditions: fold vs medium control. It is filed as cell-based, A/J mice. The method, then: At termination, lymph nodes (maxillary, mandibular, axillary, inguinal, and popliteal) and spleens were harvested from immunized animals to prepare single cell suspensions. Similarly, splenocytes were prepared from naive animals. After lysing the erythrocytes and washing, cell pellets were suspended in RPMI medium containing 10% fetal bovine serum, 1 mM sodium pyruvate, 4 mM L-glutamine, 1 × each of non-essential amino acids and vitamin mixture, and 100 U/ml penicillin–streptomycin (Lonza, Walkersville, MD, USA; hereafter called growth medium). In some experiments, CD4 T cells and CD8 T cells were enriched to a purity of ~95% by negative selection based on magnetic separation using IMAG (BD Biosciences, San Jose, CA, USA) ([31]). To stimulate CD4 and CD8 T cells, syngeneic naive irradiated splenocytes loaded with peptides were used as antigen-presenting cells at a ratio of 1:1. Cells were stimulated at a density of ~5 × 10^6 cells/ml in triplicates with or without the immunizing peptides (0–100 µg/ml) in growth medium. RNase 43–56 or HEL 46–61 were used as irrelevant controls. After 2 days, cells were pulsed with tritiated ^3[H]-thymidine (1 μCi/well; MP Biomedicals, Santa Ana, CA, USA), and 16 h later, proliferative responses were measured as counts per minute (cpm) using a Wallac liquid scintillation counter (Perkin Elmer, Waltham, MA, USA) ([26], [28], [30]).

[1] abbreviates: 10 μg/ml, animals immunized with pool VI.
Where [2] appears, read: 100 μg/ml, animals immunized with pool VI.
The mark [3] stands for this setting: 10 μg/ml, animals immunized with pool III.
The mark [4] stands for this setting: 100 μg/ml, animals immunized with pool III.
Setting [5] is: 10 μg/ml, animals immunized with pool V.
[6] abbreviates: 100 μg/ml, animals immunized with pool V.
Where [7] appears, read: 10 μg/ml, animals immunized with pool VII.
[8] abbreviates: 100 μg/ml, animals immunized with pool VII.
Setting [9] is: 10 μg/ml, animals immunized with pool II.
Setting [10] is: 100 μg/ml, animals immunized with pool II.
Where [11] appears, read: 10 μg/ml, animals immunized with pool I.
[12] abbreviates: 100 μg/ml, animals immunized with pool I.
Where [13] appears, read: 10 μg/ml, animals immunized with pool VIII.
[14] abbreviates: 100 μg/ml, animals immunized with pool VIII.
Where [15] appears, read: 10 μg/ml, animals immunized with pool IX.
The mark [16] stands for this setting: 100 μg/ml, animals immunized with pool IX.

Consider “β1AR 281-300: 20-mer of mouse β1AR peptide library (PGPPRPADSLANGRSSKRRP; UniProt P34971 281-300, looked up, fragment)”, for which the T cell responses runs as follows: under setting [1], 0.92 fold; under setting [2], 0.93 fold.
As to “β1AR 111-130: 20-mer of mouse β1AR peptide library (VVPFGATIVVWGRWEYGSFF; UniProt P34971 111-130, looked up, fragment)”, the T cell responses was 1.97 fold under setting [3] and 2.49 fold under setting [4].
Turning to “β1AR 151-170: 20-mer of mouse β1AR peptide library (VIALDRYLAITSPFRYQSLL; UniProt P34971 151-170, looked up, fragment)”, the T cell responses reads like this: under setting [3], 2.24 fold; under setting [4], 2.43 fold.
Consider “β1AR 261-280: 20-mer of mouse β1AR peptide library (CERRFLGGPARPPSPEPSPS; UniProt P34971 261-280, looked up, fragment)”, for which the T cell responses under setting [5] is on record as 0.86 fold and the T cell responses under setting [6] is recorded as 1.32 fold.
Consider “β1AR 131-150: 20-mer of mouse β1AR peptide library (CELWTSVDVLCVTASIETLC; UniProt P34971 131-150, looked up, fragment)”, for which the T cell responses is, setting by setting: under setting [3], 1.28 fold; under setting [4], 1.72 fold.
Consider “β1AR 351-370: 20-mer of mouse β1AR peptide library (FNWLGYANSAFNPIIYCRSP; UniProt P34971 351-370, looked up, fragment)”, for which the T cell responses reads like this: under setting [7], 1.86 fold; under setting [8], 1.82 fold.
Regarding “BAR 101-120: 20-mer of mouse β1AR peptide library (ASADLVMGLLVVPFGATIVV; UniProt P34971 101-120, looked up, fragment)”, the T cell responses by setting is: under setting [9], 1.01 fold; under setting [10], 1.02 fold.
“β1AR 301-320: 20-mer of mouse β1AR peptide library (SRLVALREQKALKTLGIIMG; UniProt P34971 301-320, looked up, fragment)” showed a T cell responses under setting [1] of 2.03 fold and a T cell responses under setting [2] of 1.93 fold.
As to “β1AR 121-140: 20-mer of mouse β1AR peptide library (WGRWEYGSFFCELWTSVDVL; UniProt P34971 121-140, looked up, fragment)”, the T cell responses was found to be 1.08 fold under setting [3] and 1.26 fold under setting [4].
The corresponding values for “β1AR 161-180: 20-mer of mouse β1AR peptide library (TSPFRYQSLLTRARARALVC; UniProt P34971 161-180, looked up, fragment)” are 1.03 fold and 1.29 fold.
Take “β1AR 11-30: 20-mer of mouse β1AR peptide library (SEPCNLSSAAPLPDGAATAA; UniProt P34971 11-30, looked up, fragment)”: the T cell responses stood at 1.84 fold under setting [11] and 2.06 fold under setting [12].
As to “β1AR 411-430: 20-mer of mouse β1AR peptide library (PSPGAPSDDDDDDAGTTPPA; UniProt P34971 411-430, looked up, fragment)”, the T cell responses by setting is: under setting [13], 0.93 fold; under setting [14], 0.94 fold.
“β1AR 431-450: 20-mer of mouse β1AR peptide library (RLLEPWTGCNGGTTTVDSDS; UniProt P34971 431-450, looked up, fragment)”: the T cell responses stood at 1.14 fold under setting [15] and 1.18 fold under setting [16].
In the case of “β1AR 81-100: 20-mer of mouse β1AR peptide library (VAIAKTPRLQTLTNLFIMSL; UniProt P34971 81-100, looked up, fragment)”, the T cell responses is 1.65 fold under setting [9] and 2.36 fold under setting [10].
With “β1AR 331-350: 20-mer of mouse β1AR peptide library (LANVVKAFHRDLVPDRLFVF; UniProt P34971 331-350, looked up, fragment)”, the T cell responses reads like this: under setting [7], 1.05 fold; under setting [8], 1.49 fold.
Turning to “β1AR 321-340: 20-mer of mouse β1AR peptide library (VFTLCWLPFFLANVVKAFHR; UniProt P34971 321-340, looked up, fragment)”, the T cell responses reads like this: under setting [7], 3.23 fold; under setting [8], 2.21 fold.
Take “β1AR 291-310: 20-mer of mouse β1AR peptide library (ANGRSSKRRPSRLVALREQK; UniProt P34971 291-310, looked up, fragment)”: the T cell responses runs as follows: under setting [1], 0.87 fold; under setting [2], 1.66 fold.
On to “β1AR 31-50: 20-mer of mouse β1AR peptide library (RLLVLASPPASLLPPASEGS; UniProt P34971 31-50, looked up, fragment)”, for which the T cell responses was 0.97 fold under setting [11] and 1.30 fold under setting [12].
As for “β1AR 91-110: 20-mer of mouse β1AR peptide library (TLTNLFIMSLASADLVMGLL; UniProt P34971 91-110, looked up, fragment)”, the T cell responses reads like this: under setting [9], 1.67 fold; under setting [10], 1.93 fold.
Regarding “β1AR 271-290: 20-mer of mouse β1AR peptide library (RPPSPEPSPSPGPPRPADSL; UniProt P34971 271-290, looked up, fragment)”, the T cell responses under setting [1] turned out to be 1.05 fold and the T cell responses under setting [2] came out at 1.13 fold.
With “β1AR 401-420: 20-mer of mouse β1AR peptide library (SGCLARAGPPPSPGAPSDDD; UniProt P34971 401-420, looked up, fragment)”, the T cell responses turned out to be 0.90 fold under setting [13] and 0.88 fold under setting [14].
“β1AR 341-360: 20-mer of mouse β1AR peptide library (DLVPDRLFVFFNWLGYANSA; UniProt P34971 341-360, looked up, fragment)”: the T cell responses by setting is: under setting [7], 1.02 fold; under setting [8], 1.47 fold.
For the substance “β1AR 221-240: 20-mer of mouse β1AR peptide library (NRAYAIASSVVSFYVPLCIM; UniProt P34971 221-240, looked up, fragment)”, the T cell responses stood at 1.18 fold under setting [5] and 1.01 fold under setting [6].
Regarding “β1AR 441-460: 20-mer of mouse β1AR peptide library (GGTTTVDSDSSLDEPGRQGF; UniProt P34971 441-460, looked up, fragment)”, the T cell responses by setting is: under setting [15], 0.79 fold; under setting [16], 1.01 fold.
For the substance “β1AR 311-330: 20-mer of mouse β1AR peptide library (ALKTLGIIMGVFTLCWLPFF; UniProt P34971 311-330, looked up, fragment)”, the T cell responses is, setting by setting: under setting [1], 1.30 fold; under setting [2], 1.21 fold.
With “β1AR 371-390: 20-mer of mouse β1AR peptide library (DFRKAFQRLLCCARRAACRR; UniProt P34971 371-390, looked up, fragment)”, the T cell responses came to 1.14 fold under setting [13] and 0.60 fold under setting [14].
Take “β1AR 51-70: 20-mer of mouse β1AR peptide library (APLSQQWTAGMGLLLALIVL; UniProt P34971 51-70, looked up, fragment)”: the T cell responses by setting is: under setting [9], 1.10 fold; under setting [10], 1.38 fold.
On to “β1AR 1-20: 20-mer of mouse β1AR peptide library (MGAGALALGASEPCNLSSAA; UniProt P34971 1-20, looked up, fragment)”, for which the T cell responses came to 1.52 fold under setting [11] and 1.90 fold under setting [12].
Regarding “β1AR 41-60: 20-mer of mouse β1AR peptide library (SLLPPASEGSAPLSQQWTAG; UniProt P34971 41-60, looked up, fragment)”, the T cell responses by setting is: under setting [11], 0.84 fold; under setting [12], 1.10 fold.
As for “β1AR 451-466: 16-mer of mouse β1AR peptide library (SLDEPGRQGFSSESKV; UniProt P34971 451-466, looked up, fragment)”, the T cell responses is given as 0.95 fold under setting [15] and 1.16 fold under setting [16].
On to “β1AR 251-270: 20-mer of mouse β1AR peptide library (AQKQVKKIDSCERRFLGGPA; UniProt P34971 251-270, looked up, fragment)”, for which the T cell responses under setting [5] is 1.12 fold and the T cell responses under setting [6] is given as 1.81 fold.
